Laboratory results taken from patent US11033518B2, “Pharmaceutical composition containing niclosamide for treating axin-GSK3 interaction-related diseases” (BAOBAB PHARM CO., LTD., priority 2017, dated 2021).

Legend:
intestinal adenoma = experiment: Adenoma formation in APC-MIN mice model; assay type: in vivo
Protocol: In addition, in order to confirm the therapeutic effect of niclosamide in vivo, the effect of niclosamide affecting on adenoma formation in APC-MIN (multiple intestinal neoplasia, APCΔ850) mice model was confirmed.
APC-MIN mice were prepared by crossbreeding of wild-type C57BL/6J (APC+/+) females and MIN C57BL/6J (APCMin/+) males, and APC-MIN descendants were randomly assigned in subgroups at 3 weeks age by identifying with PCR-based assay. A vehicle or niclosamide (50 mg/kg) was intraperitoneally injected daily (6 days/week), and mice were observed daily, and the weight was measured twice a week. After the end of 14 weeks, mice were sacrificed and the whole intestine was collected and intestinal flakes were opened longitudinally with scissors, and were washed with saline and were unfolded, and then tissues were obtained. The tissues were fixed with 10% formalin for 24 hours and were washed with 70% alcohol. The fixed intestinal tissues were observed using a stereomicroscope, and the size of adenoma (small, <1 mm; medium 1˜3 mm; large >3 mm) was discriminated and counted for each mouse. In case of oral administration, APC-MIN mice ingested niclosamide mixed with 15% sugar gel vehicle daily (6 days/week) for 14 weeks. The number and size of adenoma were measured with a stereomicroscope.

[1] = tested on: HCT116, SW480 and DLD-1 cells; experiment: Cell mobility of colorectal cancer cells through basement membrane; assay type: cell-based; conditions: nM level, 48 hours
Protocol: At first, the effect on the cell mobility of colorectal cancer cells of niclosamide was confirmed. Colorectal cancer cell lines HCT116, SW480 and DLD-1 cells were cultured under the condition with or without niclosamide for 48 hours, and then the upper part of the membrane was rubbed with a cotton swab and the number of movements of cells inserted into the basement membrane was stained with 0.25% crystal violet and counted. Cells were counted in five random fields.

Snail expression by CagA = experiment: Snail expression induced by CagA in the 293 cell; assay type: cell-based
Source text: In view of the results of Examples 2˜5 that niclosamide inhibited Wnt activity and EMT through Axin-GSK3 inhibition, and that CagA of Helicobacter (Helicobacter pylori) bound to GSK-3 similarly to Axin, the effect of GSK-3 binding and Snail induction by CagA of Helicobacter pylori by niclosamide was confirmed. It was confirmed that binding of CagA and GSK3 was inhibited by niclosamide similarly to Axin 2, when examining with immunoprecipitation after adding various amounts of niclosamide to this sample (FIG. 10A). In addition, it could be seen that Snail expression by CagA was inhibited when treating niclosamide after inducing CagA and Snail expression in the 293 cell (FIG. 10B). Through such a result, it could be seen that niclosamide inhibited the function of CagA performing function similar to Axin and thereby inhibited gastric cancer occurrence and inflammation by Helicobacter.

Snail, E-cadherin = experiment: Immunoblot of Snail and E-cadherin in SW480 xenograft tumor; assay type: in vivo, mice; conditions: 50 mg/kg, 200 mg/kg intraperitoneally for 3 days
Protocol: In order to investigate in vivo MoA of niclosamide controlling Snail-mediated EMT, through xenografts, the change of protein amount of Snail and E-cadherin in the tumor by niclosamide treatment was confirmed. The colorectal cancer cell line, SW480 cells (5×10^6) were subcutaneously injected to nude mice. When the tumor size became 500 mm^3 on average, mice were randomly divided into 3 groups, and a vehicle or niclosamide (50 mg/kg, 200 mg/kg) was intraperitoneally injected for 3 days. After sacrificing mice, the tumor tissue part was separated using Pro-prep protein extraction solution (#17081, Intron), and the amount of protein of Snail and E-cadherin in the tumor sample was measured by immunoblot assay.

[2] = tested on: TCF/LEF transcriptional activity induced by mutant APC; experiment: TCF/LEF transcriptional activity in 293 cell transformed by mutant APC; assay type: cell-based; conditions: 0, 0.125, 0.25, 0.5 μM, 24 hours
Protocol: Based on the results of Examples 2-5 that niclosamide inhibited Wnt activity and EMT through Axin-GSK3 inhibition, whether niclosamide could attenuate the TCF/LEF transcriptional activity induced by mutant APC was confirmed.
After transforming the mutant APC expression vector, pCMV-neo-Bam APC 1-1309 (#16508, Addgene) or pCMV-neo-BamAPC 1-1941 (#16510, Addgene) and Topflash reporter vector to 293 cell (ATCC), niclosamide (0 μM, 0.125 μM, 0.25 μM and 0.5 μM) was treated for 24 hours. The TCF/LEF transcriptional activity was quantified by measuring the luciferase activity as same as Example 2.

beta-catenin (β-catenin) = experiment: beta-catenin western blot in colorectal cancer cells; assay type: cell-based; conditions: 0, 0.125, 0.25, 0.5 nM, 24 hours; as concentration increased
Protocol: At first, after treating niclosamide of nM units at concentrations of 0 nM, 0.125 nM, 0.25 nM and 0.5 nM to colorectal cancer cells for 24 hours, the beta-catenin (β-catenin) activity and TCF/LEF reporter (Topflash) activity of colorectal cancer cells were measured.
For beta-catenin, western blot was performed using β-catenin (#610154, BD Transduction, 1:5,000) antibody, and as a result, as shown in B (left) of FIG. 1, expression of beta-catenin in colorectal cancer cells was reduced as the concentration of treated niclosamide was increased.

Axin2-GSK3 complex = target: T1, Axin2-GSK3 complex (Homo sapiens, UniProt P49841); experiment: Immunoprecipitation of His-tagged Axin2 from MCF-7 cell lysates; assay type: binding; conditions: total cell lysates of MCF-7 expressing His-tagged Axin2
T1 construct: Triton X-100 lysates of total cells; endogenous in cells; host or cells: MCF-7 cells; GSK3 is endogenous; His-tagged Axin2 comes from a transfected doxycycline-inducible vector
T1 sequence (P49841 whole entry, one chain of several): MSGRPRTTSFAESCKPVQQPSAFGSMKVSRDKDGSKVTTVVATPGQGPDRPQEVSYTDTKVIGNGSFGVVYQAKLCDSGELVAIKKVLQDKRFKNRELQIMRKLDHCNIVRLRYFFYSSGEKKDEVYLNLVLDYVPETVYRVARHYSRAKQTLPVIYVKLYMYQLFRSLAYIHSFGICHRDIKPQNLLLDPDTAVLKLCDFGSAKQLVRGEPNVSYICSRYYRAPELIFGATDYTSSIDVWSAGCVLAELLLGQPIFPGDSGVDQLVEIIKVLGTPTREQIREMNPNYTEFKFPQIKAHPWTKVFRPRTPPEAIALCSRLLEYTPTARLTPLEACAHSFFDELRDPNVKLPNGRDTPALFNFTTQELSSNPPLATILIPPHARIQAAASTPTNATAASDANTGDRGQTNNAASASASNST
Protocol: In order to confirm whether niclosamide could inhibit Axin-GSK3 interaction, to perform an immunoprecipitation experiment under the condition with or without niclosamide, cell lysates having full-length Axin2 were investigated.
The immunoprecipitation assay was performed as follows (Yook J I, et al. Nat Cell Biol. 8:1398-1406, 2006).
The doxycycline-induced His-tagged Axin2 expression vector was transformed to MCF-7 cell (ATCC, American Type Culture Collection) and was cultured, and was reacted by treating […] (Invitrogen) and niclosamide of each concentration to Triton X-100 lysates of total cells. The protein recovered in beads was subjected to SDS-PAGE, followed by immunoblot analysis, and a control group of 1/20 volume was added.

[3] = tested on: colorectal cancer cell lines HCT116, SW480 and DLD-1; experiment: Trypan blue cell viability / apoptosis of colorectal cancer cells; assay type: cell-based; conditions: 48 hours, trypan blue assay
Protocol: 1×10^5 cells of colorectal cancer cell lines HCT116, SW480 and DLD-1 cell (ATCC, American Type Culture Collection) were cultured overnight in a 6-well plate, and then were washed with PBS, and were cultured in a culture medium treated with niclosamide by each concentration (0 μM, 0.125 μM, 0.25 μM, 0.5 μM, 1 μM, 2 μM, 5 μM and 10 μM) for 48 hours. Apoptosis was measured with trypan blue assay and cell viability was calculated by an equation [1−(number of dead cells/total number of cells)].

[4] = orally administered for 14 weeks

O=C(Nc1ccc([N+](=O)[O-])cc1Cl)c1cc(Cl)ccc1O [niclosamide]
body weight (intestinal adenoma; intraperitoneal 50 mg/kg daily, 14 weeks): did not change
intestinal adenoma (intestinal adenoma; intraperitoneal 50 mg/kg daily, at 14 weeks): significantly reduced
condition of experimental animal (intestinal adenoma; [4]): stable during the drug treatment
intestinal adenoma formation (intestinal adenoma; [4]): significantly inhibited
potential of movements of colorectal cancer cells [1]: largely reduced
Snail expression by CagA (Snail expression by CagA): inhibited
amount of E-cadherin in tumor (Snail, E-cadherin): increased
presence of Snail in tumor (Snail, E-cadherin): reduced
TCF/LEF transcriptional activity increased by mutant APC [2]: reduced
expression of beta-catenin (beta-catenin (β-catenin)): reduced
GSK3 which bound to Axin2 (Axin2-GSK3 complex): reduced
apoptosis ([3]; nM concentration): did not occur
death of colorectal cells ([3]; μM concentration level): induced death
